The text below walks through data of patent US9776991B2, “Thienomethylpiperazine derivatives as inhibitors of soluble epoxide hydrolase” (SANOFI, priority 2013, dated 2017).

recombinant sEH (soluble epoxide hydrolase, EPHX2), sequence (P34913 whole entry): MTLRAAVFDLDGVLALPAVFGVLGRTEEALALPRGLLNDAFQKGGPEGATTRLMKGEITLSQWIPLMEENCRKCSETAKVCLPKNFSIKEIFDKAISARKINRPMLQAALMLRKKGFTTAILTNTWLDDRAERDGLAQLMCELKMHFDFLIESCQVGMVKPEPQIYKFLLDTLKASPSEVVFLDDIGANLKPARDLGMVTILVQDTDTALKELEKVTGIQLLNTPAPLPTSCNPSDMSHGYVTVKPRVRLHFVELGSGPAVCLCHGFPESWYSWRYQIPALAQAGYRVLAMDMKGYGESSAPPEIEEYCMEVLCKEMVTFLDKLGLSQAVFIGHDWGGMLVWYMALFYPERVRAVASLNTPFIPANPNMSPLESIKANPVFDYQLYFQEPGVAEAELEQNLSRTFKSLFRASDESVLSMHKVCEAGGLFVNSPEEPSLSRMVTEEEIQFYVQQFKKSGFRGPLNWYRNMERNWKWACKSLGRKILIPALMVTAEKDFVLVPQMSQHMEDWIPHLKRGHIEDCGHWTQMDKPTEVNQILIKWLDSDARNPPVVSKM

In the assay the target is recombinant sEH (soluble epoxide hydrolase, EPHX2) (Homo sapiens (Human), UniProt P34913). Nature of the assay: biochemical fluorometric sEH inhibition assay with Phome substrate. Particulars: recombinant sEH purified from Sf9 insect cells, 2 nM sEH, 5 μM Phome, 60 minutes at 30° C. On the procedure:
Compounds were tested in a biochemical screening assay using recombinant sEH purified from Sf9 insect cells and an artificial substrate, (3-phenyl-oxiranyl)-acetic acid cyano-(6-methoxy-naphtalen-2-yl)-methyl ester, Phome. The biochemical assay was performed in analogy to a fluorometric described in the literature (P. D. Jones et al., Anal. Biochem. 2005, 343, 66-75). The assay principle bases on the sEH-catalyzed hydrolysis of an artificial α-cyano-ester substrate. O-deacetylation liberates a cyanohydrin intermediate that rapidly decomposes to the highly fluorescent 6-methoxy-2-naphtaldehyde. To discriminate sample autofluorescence, the assay was carried out as a kinetic measurement with two time points. The first measurement is performed immediately before addition of the substrate and the […] measurement is done after completion of the assay. The assay format is either in 96- or in 384-well format.
Details of the assay using a 96-well plate format are described below. 40 μl recombinant sEH enzyme and 5 μl test compound are pre-incubated for 15 minutes at 30° C. Following pre-incubation, the reaction is started by addition of 5 μl Phome. The assay mixture containing 2 nM final sEH concentration, test compound ranging in a concentration from 0.0001-10 μM and 5 μM Phome is incubated for 60 minutes at 30° C.
Fluorescence is measured with any suitable detector for instance a TECAN Safire or Tecan Ultra at […]. % inhibition of recombinant sEH activity is used for calculation of corresponding IC50 values as illustrated and described in the examples.
The NCBI gene bank reference sequence with the accession number NM_001979 for EPHX2/sEH was applied for recombinant protein production:
The following commercially available materials have been used: • Incubation reagent: 25 mM Hepes (Sigma-Aldrich, Cat. No H-3375), 0.01% bovine albumin (Sigma-Aldrich Cat. No PA9205) • Substrate: 3-Phenyl-oxiranyl)-acetic acid cyano-(6-methoxy-naphtalen-2-yl)-methyl ester, Phome (Biozol Cat. No 10003134) • Microtiter plates: 96-well plates (Greiner Cat. No 655180; Costar Cat. No 3915)
Regarding `CC(O)C(=O)N1CCN(Cc2ccc(C(=O)NCc3ccc(Cl)cc3Cl)s2)CC1` (stereo not shown) [Example 20], the IC50 (commonly the concentration that inhibits the measured activity by half) stood at 0.539 nM.
Consider `CC1(C)OC(=O)CC1C(=O)N1CCN(Cc2ncc(C(=O)NCc3ccc(Cl)cc3Cl)s2)CC1` (stereo not shown) [Example 161], for which the half-inhibitory concentration (IC50) came out at 6.11 nM.
The result for `NC1(C(=O)N2CCN(Cc3ccc(C(=O)NCc4ccccc4OC(F)(F)F)s3)CC2)CCCCC1` [Example 157] reads 2.08 nM.
Turning to `O=C(NCc1ccc(Cl)cc1Cl)c1ccc(CN2CCN3C(=O)CCC3C2)s1` (stereo not shown) [Example 114], the IC50 was found to be 1.67 nM.
Regarding `CSCCC(=O)N1CCN(Cc2ccc(C(=O)NCc3ccccc3OC(F)(F)F)s2)CC1` [Example 137], the half-maximal inhibitory concentration (IC50) turned out to be 1.76 nM.
Consider `O=C(NCc1ccccc1OC(F)(F)F)c1ccc(CN2CCN(c3nncs3)CC2)s1` [Example 142], for which the IC50 turned out to be 1.82 nM.
With `COCc1cc(O)nc(N2CCN(Cc3ccc(C(=O)NCc4ccc(Cl)cc4Cl)s3)CC2)n1` [Example 21], the IC50 stood at 2.9 nM.
Take `O=C(NCc1ccc(Cl)cc1Cl)c1cnc(CN2CCN(C(=O)C3(O)CC3)CC2)s1` [Example 201]: the IC50 turned out to be 6.37 nM.
The result for `O=C(NCc1ccccc1C(F)(F)F)c1ccc(CN2CCN(C(=O)c3ccc(F)cc3Cl)CC2)s1` [Example 64] reads 1.25 nM; that for `O=C(NCc1ccc(Cl)cc1Cl)c1ccc(CN2CCN(c3ccc(O)nn3)CC2)s1` [Example 50], 2.67 nM.
On to `O=C(NCc1ccc(Cl)cc1Cl)c1cnc(CN2CCN(C(=O)CN3CCOC3=O)CC2)s1` [Example 193], for which the half-inhibitory concentration (IC50) came to 15.2 nM.
For the compound `O=C(NCc1ccc(Cl)cc1Cl)c1ccc(CN2CCN(C(=O)COc3ccccc3)CC2)s1` [Example 42], the IC50 worked out at 2.7 nM.
Turning to `O=C(NCc1ccc(Cl)cc1Cl)c1cnc(CN2CCN(C(=O)CN3C[C@@H](O)CC3=O)CC2)s1` [Example 210], the half-inhibitory concentration (IC50) was 52.4 nM.
Turning to `O=C(NCc1ccccc1C(F)(F)F)c1ccc(CN2CCN(C(=O)c3ccccn3)CC2)s1` [Example 16], the IC50 came out at 0.534 nM.
The result for `O=C(NCc1ccccc1C(F)(F)F)c1ccc(CN2CCN(C(=O)c3c(Cl)cccc3Cl)CC2)s1` [Example 81] reads 2.36 nM.
For `COCCCC(=O)N1CCN(Cc2ncc(C(=O)NCc3ccc(Cl)cc3Cl)s2)CC1` [Example 166], the IC50 stood at 21.3 nM.
On to `CNC(=O)c1cccnc1N1CCN(Cc2ccc(C(=O)NCc3ccc(OC)cc3OC(F)(F)F)s2)CC1` [Example 74], for which the concentration for half-maximal inhibition (IC50) stood at 2.66 nM.
`COc1cc(CNC(=O)c2ccc(CN3CCN(C(=O)c4c(C)cc(=O)oc4C)CC3)s2)ccn1` [Example 34]: the concentration for half-maximal inhibition (IC50) came to 0.906 nM.
Turning to `CC(C(=O)N1CCN(Cc2ncc(C(=O)NCc3ccc(Cl)cc3Cl)s2)CC1)N1CCCC1=O` (stereo not shown) [Example 169], the half-maximal inhibitory concentration (IC50) worked out at 8.76 nM.
As to `COc1cc(CNC(=O)c2ccc(CN3CCN(C(=O)C4CC(=O)OC4(C)C)CC3)s2)ccn1` (stereo not shown) [Example 40], the IC50 worked out at 2.75 nM.
`O=C(NCc1ccc(Cl)cc1Cl)c1ccc(CN2CCN(C(=O)c3cccnc3)CC2)s1` [Example 89]: the IC50 stood at 1.4 nM.
The result for `CC(C(=O)N1CCN(Cc2ccc(C(=O)NCc3ccc(Cl)cc3Cl)s2)CC1)c1ccccc1` (stereo not shown) [Example 63] reads 1.21 nM; that for `CC(C)CCNC(=O)c1ccc(CN2CCN(C(=O)[C@@H]3C[C@H]3c3ccccc3)CC2)s1` [Example 5], 0.432 nM; that for `CN1CC(C(=O)N2CCN(Cc3ncc(C(=O)NCc4ccc(Cl)cc4Cl)s3)CC2)CC1=O` (stereo not shown) [Example 197], 49.5 nM.
As for `O=C(NCc1ccc(Cl)cc1Cl)c1ccc(CN2CCN(C(=O)C3Cc4ccccc43)CC2)s1` (stereo not shown) [Example 70], the IC50 is 2.62 nM.
Consider `COCC1(C(=O)N2CCN(Cc3ccc(C(=O)NCc4ccccc4OC(F)(F)F)s3)CC2)CC1` [Example 68], for which the IC50 stood at 1.19 nM.
As for `Cc1cc(=O)oc(C)c1C(=O)N1CCN(Cc2ccc(C(=O)NCc3ccccc3OC(F)F)s2)CC1` [Example 150], the half-inhibitory concentration (IC50) was 1.87 nM.
As for `CCCn1nccc1CNC(=O)c1ccc(CN2CCN(C(=O)c3c(C)cc(=O)oc3C)CC2)s1` [Example 78], the concentration for half-maximal inhibition (IC50) was found to be 2.54 nM.
The result for `O=C1NCC(C(=O)N2CCN(Cc3ncc(C(=O)NCc4ccc(Cl)cc4Cl)s3)CC2)N1` (stereo not shown) [Example 203] reads 36.3 nM; that for `O=C(NCc1ccccc1OC(F)(F)F)c1ccc(CN2CCN(C(=O)C3COCCN3)CC2)s1` (stereo not shown) [Example 49], 2.68 nM.
For `COCC1(C(=O)N2CCN(Cc3ncc(C(=O)NCc4ccc(Cl)cc4Cl)s3)CC2)CC1` [Example 205], the IC50 stood at 5.7 nM.
As for `O=C(NCc1ccccc1OC(F)(F)F)c1ccc(CN2CCN(C(=O)c3ccccn3)CC2)s1` [Example 121], the 50% inhibitory concentration (IC50) worked out at 1.68 nM.
Consider `COCCC(=O)N1CCN(Cc2ncc(C(=O)NCc3ccc(Cl)cc3Cl)s2)CC1` [Example 173], for which the IC50 amounted to 33.4 nM.
In the case of `Cc1cc(C(=O)NCCC(C)(C)C)sc1CN1CCN(C(=O)c2c(C)cc(=O)oc2C)CC1` [Example 159], the IC50 turned out to be 0.8 nM.
The result for `Cc1cccnc1C(=O)N1CCN(Cc2ncc(C(=O)NCc3ccc(Cl)cc3Cl)s2)CC1` [Example 194] reads 32 nM; that for `O=C(NCc1ccc(Cl)cc1Cl)c1cnc(CN2CCN(C(=O)c3nc(F)ccc3F)CC2)s1` [Example 180], 8.46 nM; that for `CC(C)(O)CC(=O)N1CCN(Cc2ccc(C(=O)NCc3ccccc3OC(F)(F)F)s2)CC1` [Example 128], 1.73 nM.
The result for `O=C(NCc1ccccc1C(F)(F)F)c1ccc(CN2CCN(C(=O)c3cnn4ccccc34)CC2)s1` [Example 151] reads 1.97 nM; that for `Cc1noc(C)c1CC(=O)N1CCN(Cc2ncc(C(=O)NCc3ccc(Cl)cc3Cl)s2)CC1` [Example 165], 9.61 nM; that for `Cc1cc(=O)oc(C)c1C(=O)N1CCN(Cc2ccc(C(=O)NCC3CCc4ccccc43)s2)CC1` (stereo not shown) [Example 23], 2.75 nM.
`Cn1cccc1C(=O)N1CCN(Cc2ccc(C(=O)NCc3ccc(Cl)cc3Cl)s2)CC1` [Example 130]: the IC50 amounted to 1.73 nM.
The result for `O=C(NCc1ccccc1C(F)(F)F)c1ccc(CN2CCN(C(=O)COc3ccccc3)CC2)s1` [Example 17] reads 0.699 nM; that for `CCc1oncc1C(=O)N1CCN(Cc2ccc(C(=O)NCc3ccccc3C(F)(F)F)s2)CC1` [Example 117], 1.64 nM.
For `CC(O)CC(=O)N1CCN(Cc2ccc(C(=O)NCc3ccccc3OC(F)(F)F)s2)CC1` (stereo not shown) [Example 92], the half-inhibitory concentration (IC50) was 1.39 nM.
The result for `O=C(NCc1ccc(Cl)cc1Cl)c1ccc(CN2CCN(C3CCCC3)C(=O)C2)s1` [Example 84] reads 2.35 nM.
Take `COc1ccc(OC)c(C(=O)N2CCN(Cc3ccc(C(=O)NCc4ccccc4OC(F)(F)F)s3)CC2)n1` [Example 67]: the half-inhibitory concentration (IC50) was 1.21 nM.
For `O=C(NCc1ccccc1OC(F)(F)F)c1ccc(CN2CCN(c3nccs3)C(=O)C2)s1` [Example 47], the IC50 turned out to be 2.69 nM.
The result for `O=C(NCc1ccc(Cl)cc1Cl)c1cnc(CN2CCN(C(=O)CO)CC2)s1` [Example 181] reads 52.1 nM; that for `O=C(NCc1ccccc1OC(F)(F)F)c1ccc(CN2CCN(C(=O)CCO)CC2)s1` [Example 106], 2.18 nM.
The result for `CNC(=O)c1cccnc1N1CCN(Cc2ccc(C(=O)NCc3ccccc3OC(F)(F)F)s2)CC1` [Example 135] reads 2.14 nM; that for `O=C(NCc1ccccc1OC(F)(F)F)c1ccc(CN2CCN(C(=O)c3nc(F)ccc3F)CC2)s1` [Example 129], 1.73 nM; that for `O=C(NCc1ccccc1OC(F)(F)F)c1ccc(CN2CCN(CC(F)(F)F)C(=O)C2)s1` [Example 111], 2.23 nM.
With `COCCOCC(=O)N1CCN(Cc2ccc(C(=O)NCc3ccccc3OC(F)(F)F)s2)CC1` [Example 83], the IC50 is 2.37 nM.
Consider `O=C(NCc1ccc(Cl)cc1Cl)c1cnc(CN2CCN(C(=O)C3CCCO3)CC2)s1` (stereo not shown) [Example 182], for which the half-maximal inhibitory concentration (IC50) is 18.4 nM.
The result for `Cc1cc(C(=O)NCc2cccc3c2OCCO3)sc1CN1CCN(C(=O)c2c(C)cc(=O)oc2C)CC1` [Example 29] reads 0.803 nM; that for `CC(C)(O)C(=O)N1CCN(Cc2ncc(C(=O)NCc3ccc(Cl)cc3Cl)s2)CC1` [Example 172], 10.8 nM; that for `O=C(NCc1ccc(Cl)cc1Cl)c1cnc(CN2CCN(C(=O)C3COCCO3)CC2)s1` (stereo not shown) [Example 170], 18 nM.
On to `CCC(C)(O)C(=O)N1CCN(Cc2ncc(C(=O)NCc3ccc(Cl)cc3Cl)s2)CC1` (stereo not shown) [Example 167], for which the IC50 is 12.2 nM.
As to `Cn1ncc(Br)c1C(=O)N1CCN(Cc2ccc(C(=O)NCc3ccccc3C(F)(F)F)s2)CC1` [Example 52], the IC50 stood at 0.955 nM.
For the compound `Cc1cccc(C(=O)N2CCN(Cc3ncc(C(=O)NCc4ccc(Cl)cc4Cl)s3)CC2)n1` [Example 174], the IC50 is 14.8 nM.
For the compound `NC(CF)C(=O)N1CCN(Cc2ccc(C(=O)NCc3ccccc3OC(F)(F)F)s2)CC1` (stereo not shown) [Example 144], the 50% inhibitory concentration (IC50) turned out to be 1.79 nM.
